Laboratory results from PMC7046553, “Backbone Cyclization and Dimerization of LL-37-Derived Peptides Enhance Antimicrobial Activity and Proteolytic Stability” (Frontiers in Microbiology, 2020).
pIC50: −log10 of the molar value. Values after ≈ are worked out from the molar mass of the structure shown. Like-named read-outs stand apart in the source and are kept apart here. Where a SMILES comes first, the peptide text is derived from it.

What was measured:
[1] = tested on: human lymphoma cell line U-937 GTB; details: read-out: IC50 (cytotoxicity); 72 hours incubation; tested in parallel with the dimers; ref Gunasekera et al., 2018; cited from earlier work
[2] = in vitro; details: human, 25% human serum
Description: Proteolytic stability of the peptides were determined in diluted human serum (1:4 v/v, serum:PBS) at 37°C followed by LC-MS analysis. To examine the intact peptide after serum incubation, aliquots of each incubation mixture were taken at each time point for LC-MS analysis (Figure 5).
Peptide stability was assayed in diluted human serum. 25% human serum was centrifuged at 13,000 rpm for 10 min to remove lipids and the supernatant was collected and incubated at 37°C for 15 min. […] Eighty μl of 6 M urea was added and incubated at 4°C for a further 10 min. 80 μl of 20% TCA was added and incubated at 4°C for a further 10 min. The samples were centrifuged at 13000 g for 10 min and the supernatant was analyzed by LC-MS.

[3] = assay type: cell-based, human
Source text: FIGURE 4 Cytotoxicity. Cytotoxicity on a human lymphoma cell line (U-937 GTB). The cell viability derives from the hydrolysis of the probe fluorescein diacetate by esterases in cells with intact plasma membranes. Results are means from triplicates with standard deviation, and the IC50 level is highlighted by a double line. The dose–response curve for LL-37 has been constrained within 100% to compensate for elevated fluorescein hydrolysis by intermediate LL-37 concentrations. The data for KR-12, Q5K,D9K and LL-37 are from our previous work ([Gunasekera et al., 2018]), but tested in parallel with the dimers and included here for consistency.
The cytotoxicity of the peptides was tested on the human lymphoma cell line U-937 GTB in a fluorometric microculture cytotoxicity assay (FMCA), described in detail previously ([Sundström and Nilsson, 1976]; [Lindhagen et al., 2008]). […] After incubation for 40 minutes the fluorescence was measured at 485 nm excitation and 538 nm emission using a Fluoroscan II (Labsystems Diagnostics Oy, Helsinki, FinlandI). The IC50-values were calculated using sigmoidal dose response curves with nonlinear non-linear regression and 0/100 constraints in GraphPad Prism (GraphPad Software, San Diego, CA, United States). […]

[4] = tested on: Staphylococcus aureus ATCC 29213; details: ATCC 29213, 5 h
Description: (§1) The three bacterial strains: Escherichia coli ATCC 25922, Pseudomonas aeruginosa ATCC 27853 Staphylococcus aureus ATCC 29213 as well as the fungal strain Candida albicans ATCC 90028 derived from clinical wound infections were obtained from the Department of Clinical Bacteriology at Lund University Hospital.
(§2) Antimicrobial activities of the peptides were evaluated using the two-step microdilution assay ([Strömstedt et al., 2017]), which is designed for testing AMPs without activity-inhibiting components. Briefly, the microbial suspension was washed twice with 10 mM Tris buffer (set to pH 7.4 at 37°C). 96-well plates (U-shaped, untreated polystyrene) were prepared with peptide 2-fold serial dilutions in Tris buffer. The culture density was quantified by OD600, diluted in Tris buffer and 50,000 cells aliquoted to each well in the 96-well plate to a final 100 μl volume. After 5 h of aerobic incubation at 37°C, 5 μl of 20% TSB medium was added to each well (resulting in 1% TSB) and the plates were re-incubated. Growth-inhibition was monitored when controls produced pellet sizes of 2 mm in diameter (close to growth saturation), which equates to 5, 8, 10, and 12 h for E. coli, S. aureus, P. aeruginosa, and C. albicans, respectively. […] The MIC-values in Table 1, are medians from triplicate experiments, while the data presented in the Figure 2 are the same values relative to that of KR-12.

[5] = tested on: Escherichia coli ATCC 25922; details: ATCC 25922, 5 h
Description: as §1, §2

[6] = tested on: Candida albicans ATCC 90028; details: ATCC 90028, 5 h
Description: as §1, §2

[7] = tested on: Pseudomonas aeruginosa ATCC 27853; details: ATCC 27853, 5 h
Description: as §1, §2

[8] = tested on: Human type A RBCs; assay: Hemolysis assay; assay type: cell-based
Description: Peptides were dissolved in water and serially diluted in PBS to give 20 μl test solutions in a 96-well U-bottomed microtiter plate (Nunc). Human type A RBCs (red blood cells) were washed with PBS and centrifuged at 1500 g for 60 s in a microcentrifuge several times until a clear supernatant was obtained. A 0.25% suspension of washed RBCs in PBS (100 μl) was added to the peptide solutions. The plate was incubated at 37°C for 1 h and centrifuged at 150 g for 5 min. Aliquots of 100 μl were transferred to a 96-well flat-bottomed microtiter plate (Falcon) and the absorbance was measured at 405 nm with an automatic Multiskan Ascent plate reader (Labsystems). The amount of hemolysis was calculated as the percentage of maximum lysis (1% Triton X-100 control) after adjusting for minimum lysis (PBS control). Synthetic melittin (Sigma) was used for comparison. The hemolytic dose necessary to lyse 50% of the RBCs (HD50) was calculated using the regression constant from the linear portion of the hemolytic titration curve (GraphPad Prism software).

| SMILES | pIC50 [1] | remaining at 6 h [2] [%] | pIC50 [3] | MIC S. aureus [4] [µM] | MIC E. coli [5] [µM] | MIC bact. [5] [µM] | MIC C. albicans [6] [µM] | MIC fung. [6] [µM] | MIC P. aeruginosa [7] [µM] | HC50 (hemolysis) ([8]; red cells of human, 1 h) [µM] | HC50 (hemolysis) [8] [µM] |
| --- | --- | --- | --- | --- | --- | --- | --- | --- | --- | --- | --- |
| CC[C@H](C)[C@H](NC(=O)[C@H](CCCCN)NC(=O)[C@H](CCC(=O)O)NC(=O)[C@H](CCCCN)NC(=O)[C@H](CO)NC(=O)[C@H](CCCCN)NC(=O)[C@H](CCCNC(=N)N)NC(=O)[C@H](Cc1ccccc1)NC(=O)[C@H](Cc1ccccc1)NC(=O)[C@H](CC(=O)O)NC(=O)CNC(=O)[C@H](CC(C)C)NC(=O)[C@@H](N)CC(C)C)C(=O)NCC(=O)N[C@@H](CCCCN)C(=O)N[C@@H](CCC(=O)O)C(=O)N[C@@H](Cc1ccccc1)C(=O)N[C@@H](CCCCN)C(=O)N[C@@H](CCCNC(=N)N)C(=O)N[C@H](C(=O)N[C@H](C(=O)N[C@@H](CCC(N)=O)C(=O)N[C@@H](CCCNC(=N)N)C(=O)N[C@H](C(=O)N[C@@H](CCCCN)C(=O)N[C@@H](CC(=O)O)C(=O)N[C@@H](Cc1ccccc1)C(=O)N[C@@H](CC(C)C)C(=O)N[C@@H](CCCNC(=N)N)C(=O)N[C@@H](CC(N)=O)C(=O)N[C@@H](CC(C)C)C(=O)N[C@H](C(=O)N1CCC[C@H]1C(=O)N[C@@H](CCCNC(=N)N)C(=O)N[C@H](C(=O)N[C@@H](CCC(=O)O)C(=O)N[C@@H](CO)C(=O)O)[C@@H](C)O)C(C)C)[C@@H](C)CC)C(C)C)[C@@H](C)CC [LL-37] | 5.00 | – | – | – | – | – | – | – | – | – | – |
| CC[C@H](C)[C@@H]1NC(=O)[C@H](CCCNC(=N)N)NC(=O)[C@H](CCCCN)NC(=O)[C@H](C(C)C)NC(=O)[C@H]([C@@H](C)CC)NC(=O)[C@H](CCCNC(=N)N)NC(=O)[C@H](CCCCN)NC(=O)CNC(=O)CNC(=O)[C@H](C)NC(=O)CNC(=O)[C@H](CCCNC(=N)N)NC(=O)[C@H](CC(C)C)NC(=O)[C@H](Cc2ccccc2)NC(=O)[C@H](CCCCN)NC(=O)[C@H](CCCCN)NC(=O)[C@H]([C@@H](C)CC)NC(=O)[C@H](CCCNC(=N)N)NC(=O)[C@H](CCCCN)NC(=O)[C@H](C(C)C)NC(=O)[C@H]([C@@H](C)CC)NC(=O)[C@H](CCCNC(=N)N)NC(=O)[C@H](CCCCN)NC(=O)CNC(=O)CNC(=O)[C@H](C)NC(=O)CNC(=O)[C@H](CCCNC(=N)N)NC(=O)[C@H](CC(C)C)NC(=O)[C@H](Cc2ccccc2)NC(=O)[C@H](CCCCN)NC(=O)[C@H](CCCCN)NC1=O [cd4(Q5K,D9K)] (cyclo(AGGKRIVKRIKKFLRGAGGKRIVKRIKKFLRG)) | – | ~50 | 6.00 | 0.625 (≈ 2.26 µg/mL) | 0.625 (≈ 2.26 µg/mL) | 0.63 (≈ 2.28 µg/mL) | 1.25 (≈ 4.52 µg/mL) | 1.25 (≈ 4.52 µg/mL) | 0.625 (≈ 2.26 µg/mL) | 10 | – |
| CC[C@H](C)[C@@H]1NC(=O)[C@H](CCCNC(=N)N)NC(=O)[C@H](CCC(N)=O)NC(=O)[C@H](C(C)C)NC(=O)[C@H]([C@@H](C)CC)NC(=O)[C@H](CCCNC(=N)N)NC(=O)[C@H](CCCCN)NC(=O)CNC(=O)CNC(=O)[C@H](C)NC(=O)CNC(=O)[C@H](CCCNC(=N)N)NC(=O)[C@H](CC(C)C)NC(=O)[C@H](Cc2ccccc2)NC(=O)[C@H](CC(=O)O)NC(=O)[C@H](CCCCN)NC(=O)[C@H]([C@@H](C)CC)NC(=O)[C@H](CCCNC(=N)N)NC(=O)[C@H](CCC(N)=O)NC(=O)[C@H](C(C)C)NC(=O)[C@H]([C@@H](C)CC)NC(=O)[C@H](CCCNC(=N)N)NC(=O)[C@H](CCCCN)NC(=O)CNC(=O)CNC(=O)[C@H](C)NC(=O)CNC(=O)[C@H](CCCNC(=N)N)NC(=O)[C@H](CC(C)C)NC(=O)[C@H](Cc2ccccc2)NC(=O)[C@H](CC(=O)O)NC(=O)[C@H](CCCCN)NC1=O [cd4] (cyclo(AGGKRIVQRIKDFLRGAGGKRIVQRIKDFLRG)) | – | ~50 | 5.29 | 1.25 (≈ 4.49 µg/mL) | 0.625 (≈ 2.25 µg/mL) | 0.63 (≈ 2.26 µg/mL) | 2.5 (≈ 8.98 µg/mL) | 2.5 (≈ 8.98 µg/mL) | 0.625 (≈ 2.25 µg/mL) | – | > 40 |
